According to the supplement of paper PMC10307832:

Experiments:
Experiment in all cases: relative viability (nuclei count vs DMSO), 5 days (fraction); higher = more cells survive
Motesanib + Luminespib = compound: CC1(C)CNc2cc(NC(=O)c3cccnc3NCc3ccncc3)ccc21 [Motesanib] + CCNC(=O)c1noc(-c2cc(C(C)C)c(O)cc2O)c1-c1ccc(CN2CCOCC2)cc1 [Luminespib] (partner 0.01 µM)
Method in brief: (§1)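 Relative viability was taken as the ratio of nuclei in treated wells to nuclei in vehicle wells. Lung cancer cell lines in 1536-well plates received compounds by pin tool one day after seeding, either one drug alone or a fixed anchor-drug dose plus five library-drug doses (not always all listed) in √10 steps. Nuclei were counted on 4× images after 5 days of treatment, and values are medians of duplicate plates.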

[1] = compound: C[C@@]1(C(=O)Nc2ccc(F)nc2)CCCN1c1nc(Nc2cc(C3CC3)n[nH]2)c2cccn2n1 + NC(=O)Nc1cc(-c2cccc(F)c2)sc1C(=O)N[C@H]1CCCNC1 [AZD7762] (partner 0.2 µM)
Method in brief: as §1

Motesanib + Olaparib = compound: CC1(C)CNc2cc(NC(=O)c3cccnc3NCc3ccncc3)ccc21 [Motesanib] + O=C(c1cc(Cc2n[nH]c(=O)c3ccccc23)ccc1F)N1CCN(C(=O)C2CC2)CC1 [Olaparib] (partner 8 µM)
Method in brief: as §1

[2] = compound: C[C@@]1(C(=O)Nc2ccc(F)nc2)CCCN1c1nc(Nc2cc(C3CC3)n[nH]2)c2cccn2n1 + CS(=O)(=O)N1CCN(Cc2cc3nc(-c4cccc5[nH]ncc45)nc(N4CCOCC4)c3s2)CC1 [Pictilisib] (partner 1 µM)
Method in brief: as §1

Row | Cell Line | relative viability (Motesanib + Luminespib; first compound 0.01 µM) | relative viability (Motesanib + Luminespib; first compound 0.03162 µM) | relative viability (Motesanib + Luminespib; first compound 0.1 µM) | relative viability (Motesanib + Luminespib; first compound 0.3162 µM) | relative viability (Motesanib + Luminespib; first compound 1 µM) | relative viability ([1]; first compound 0.04 µM) | relative viability ([1]; first compound 0.1265 µM) | relative viability ([1]; first compound 0.4 µM) | relative viability ([1]; first compound 1.265 µM) | relative viability (Motesanib + Olaparib; first compound 0.01 µM) | relative viability (Motesanib + Olaparib; first compound 0.03162 µM) | relative viability (Motesanib + Olaparib; first compound 0.1 µM) | relative viability (Motesanib + Olaparib; first compound 0.3162 µM) | relative viability (Motesanib + Olaparib; first compound 1 µM) | relative viability ([2]; first compound 0.04 µM) | relative viability ([2]; first compound 0.1265 µM) | relative viability ([2]; first compound 0.4 µM) | relative viability ([2]; first compound 1.265 µM)
1 | HARA | 0.894 | 0.628 | 0.786 | 0.871 | 0.612 | 0.42 | 0.227 | 0.73 | 0.198 | 0.761 | 0.937 | 1.06 | 0.902 | 1.05 | 0.366 | 0.208 | 0.215 | 0.294
2 | NCI-H838 | 0.316 | 0.295 | 0.355 | 0.286 | 0.216 | 0.981 | 0.918 | 0.814 | 0.872 | 0.778 | 0.765 | 0.792 | 0.746 | 0.804 | 0.514 | 0.379 | 0.263 | 0.365
3 | NCI-H1755 | 0.492 | 0.505 | 0.353 | 0.445 | 0.315 | 0.481 | 0.424 | 0.378 | 0.406 | 0.795 | 0.877 | 0.774 | 0.923 | 0.9 | 0.481 | 0.241 | 0.307 | 0.381
4 | NCI-H322M | 0.913 | 0.951 | 0.88 | 0.842 | 0.949 | 0.45 | 0.424 | 0.492 | 0.35 | 0.82 | 0.762 | 0.886 | 0.803 | 0.812 | 0.479 | 0.376 | 0.371 | 0.507
5 | NCI-H3122 | 0.0808 | 0.0851 | 0.0914 | 0.0799 | 0.0833 | 0.79 | 0.88 | 0.651 | 0.831 | 0.581 | 0.644 | 0.644 | 0.632 | 0.683 | 0.479 | 0.374 | 0.479 | 0.393
6 | NCI-H2087 | 0.159 | 0.174 | 0.149 | 0.149 | 0.145 | 1.26 | 1.25 | 1.09 | 1.23 |  |  | 0.663 | 0.703 | 0.747 | 0.896 | 0.783 | 0.792 | 0.7
7 | LC-2-ad | 1.03 | 1.01 | 0.959 | 1.07 | 1.19 | 0.657 | 0.586 | 0.543 | 0.391 | 0.689 | 0.709 | 0.816 | 0.733 | 0.785 | 0.248 | 0.271 | 0.272 | 0.206
8 | NCI-H1915 | 0.765 | 0.745 | 0.764 | 0.826 | 0.754 | 0.728 | 0.731 | 0.663 | 0.701 | 0.246 | 0.262 | 0.258 | 0.277 | 0.286 | 0.948 | 1.04 | 0.894 | 0.863
9 | NCI-H1793 | 0.26 | 0.196 | 0.199 | 0.463 | 0.182 | 0.463 | 0.501 | 0.393 | 0.456 | 0.798 | 0.827 | 0.761 | 0.904 | 0.844 | 0.338 | 0.284 | 0.323 | 0.293
